# US20110212933A1, “Antiseptic Compositions for the Treatment of Infections” (priority 2008, published 2011)
# Values joined by “and” are separate entries in the source; they are usually repeats but may differ in a detail not shown here. Equal values may be shown once. Read-outs that look alike come from different tables or passages of the source.
# How the values were obtained:
# guinea pigs [1] = experiment: Dermal sensitization test in guinea pigs (Buehler)
# guinea pigs [2] = details: 0.4 mL, historical data, cited from earlier work
# guinea pigs [3] = details: Positive Control animals, historical data, cited from earlier work; for Individual Bodyweight Initial: baseline
# S. aureus = system: S. aureus
# Procedure: (§1) Phenol Resistance Control: The phenol resistance of the test organisms were determined per the AOAC method.
# (§2) Final phenol dilutions were made the day of use from stock phenol within manufacturer's stability specification.
# S. cholerasuis = system: S. cholerasuis
# Procedure: as §1, §2
# P. aeruginosa = system: P. aeruginosa
# Procedure: as §1, §2
# T. mentagrophytes = system: T. mentagrophytes
# Procedure: Phenol Resistance Control: The phenol resistance of Trichophyton mentagrophytes was determined per the AOAC method. Final phenol dilutions were made the day of use from stock phenol within manufacturer's stability specification.
# [4] = historical positive naive control animals, 0.04% in acetone
# [5] = Dilution 1:60, Exposure Time 5 Minutes
# [6] = Dilution 1:60, Exposure Time 10 Minutes
# [7] = Dilution 1:70, Exposure Time 5 Minutes
# [8] = Dilution 1:70, Exposure Time 10 Minutes
# [9] = Dilution 1:90, Exposure Time 5 Minutes
# [10] = Dilution 1:90, Exposure Time 10 Minutes
# [11] = Dilution 1:90, Exposure Time 15 Minutes
compound,measurement,setting,value
"O=[N+]([O-])c1ccc(Cl)c([N+](=O)[O-])c1 [DNCB, 1-Chloro-2,4-Dinitrobenzene]","erythema score, induction phase","guinea pigs [1]; historical positive control animals, 0.08% in 80% aqueous ethanol",0.5-3
same,sites with very faint erythema (0.5) 24 hours after challenge,guinea pigs [1]; [4],two
same,time for irritation to clear from affected sites,guinea pigs [1]; [4],≤ 48 h
same,Preliminary Irritation Testing Score,guinea pigs [2]; Concentration 0.02% w/w in acetone,0
same,Preliminary Irritation Testing Score,guinea pigs [2]; Concentration 0.03% w/w in acetone,0 and 0.5
same,Preliminary Irritation Testing Score,guinea pigs [2]; Concentration 0.04% w/w in acetone,0 and 0.5
same,Individual Bodyweight Initial,guinea pigs [3]; female guinea pigs,393 g and 404 g and 415 g and 411 g and 408 g and 428 g and 372 g
same,Individual Bodyweight Initial,guinea pigs [3]; male guinea pigs,406 g (2×) and 379 g and 413 g and 423 g and 408 g and 386 g and 407 g
same,Individual Bodyweight Day After Challenge,guinea pigs [3]; female guinea pigs,568 g and 660 g and 581 g and 536 g and 591 g and 544 g and 609 g
same,Individual Bodyweight Day After Challenge,guinea pigs [3]; male guinea pigs,579 g and 544 g and 600 g and 618 g and 668 g and 551 g and 639 g and 599 g
"Oc1ccccc1 [Phenol, phenol]","Phenol Resistance, growth in subculture",S. aureus; [5],+
same,"Phenol Resistance, growth in subculture",S. aureus; [6],+
same,"Phenol Resistance, growth in subculture","S. aureus; Dilution 1:60, Exposure Time 15 Minutes",0
same,"Phenol Resistance, growth in subculture",S. aureus; [7],+
same,"Phenol Resistance, growth in subculture",S. aureus; [8],+
same,"Phenol Resistance, growth in subculture","S. aureus; Dilution 1:70, Exposure Time 15 Minutes",+
same,"Phenol Resistance, growth in subculture",S. cholerasuis; [9],+
same,"Phenol Resistance, growth in subculture",S. cholerasuis; [10],0
same,"Phenol Resistance, growth in subculture",S. cholerasuis; [11],0
same,"Phenol Resistance, growth in subculture","S. cholerasuis; Dilution 1:100, Exposure Time 5 Minutes",+
same,"Phenol Resistance, growth in subculture","S. cholerasuis; Dilution 1:100, Exposure Time 10 Minutes",+
same,"Phenol Resistance, growth in subculture","S. cholerasuis; Dilution 1:100, Exposure Time 15 Minutes",0
same,"Phenol Resistance, growth in subculture","P. aeruginosa; Dilution 1:80, Exposure Time 5 Minutes",0
same,"Phenol Resistance, growth in subculture","P. aeruginosa; Dilution 1:80, Exposure Time 10 Minutes",0
same,"Phenol Resistance, growth in subculture","P. aeruginosa; Dilution 1:80, Exposure Time 15 Minutes",0
same,"Phenol Resistance, growth in subculture",P. aeruginosa; [9],+
same,"Phenol Resistance, growth in subculture",P. aeruginosa; [10],+
same,"Phenol Resistance, growth in subculture",P. aeruginosa; [11],+
same,"Phenol Resistance, growth in subculture",T. mentagrophytes; [5],0
same,"Phenol Resistance, growth in subculture",T. mentagrophytes; [6],0
same,"Phenol Resistance, growth in subculture",T. mentagrophytes; [7],+
same,"Phenol Resistance, growth in subculture",T. mentagrophytes; [8],+
